Source: patent publication US20110165115A1, “SYNERGISTIC ATTRACTANTS FOR PESTIFEROUS SOCIAL INSECTS” (STERLING INTERNATIONAL INC., priority 2010, published 2011)

Tests used:
[1] = test system: P. dominulus workers antennae; experiment: GC-EAD of synthetic mixture of known HIPVs; design: species or system Polistes dominulus; details: 100 ng/μl each in hexane
Procedure: Aeration samples of the cherry branches (damaged or undamaged/slightly damaged) were injected (3 μl) splitless into a Varian CP-3800 GC equipped with a polar column (HP-INNOWax; 30 m×0.53 mm×1.0 μm film thickness; Agilent Technologies, Wilmington, Del., USA) and a 1:1 effluent splitter that allowed simultaneous flame ionization detection (FID) and electroantennographic detection (EAD) of the European paper wasp (Polistes dominulus) worker antennae to the separated volatile compounds. Helium was used as the carrier gas, and the injector and detector temperatures were 250° C. and 300° C., respectively. Column temperature was 50° C. for 1 min, rising to 240° C. at 10° C./min, and then held for 10 min. The outlet for the EAD was held in a humidified air stream flowing at 0.5 m/sec over the antennal preparation. EAD recordings were made using silver wire-glass capillary electrodes filled with Beadle-Ephrussi Ringer on freshly cut antennae. The antennal signals were stored and analyzed on a PC equipped with a serial IDAC interface box and the program EAD ver. 2.5 (Syntech, Hilversum, The Netherlands). In addition, GC-EAD responses to a synthetic mixture (100 ng/μl each) containing nine known HIPVs including cis-3-hexen-1-ol, cis-3-hexenyl acetate, trans-β-ocimene, (E)-4,8-dimethyl-1,3,7-nonatriene, linalool, methyl salicylate, geranyl acetate, trans-β-caryophyllene and trans-β-farnesene were tested on the P. dominulus workers. (See FIG. 2.) The same chemicals were also tested on beneficial insect antennae from Chrysopa oculata, Myrmeleon crudelis, Podisus maculiventris, and Hippodarnia convergens. (See FIG. 6.) Antennally active peaks in the aeration samples were identified by GC-MS on an HP 6890 GC series coupled with an HP 5973 Mass Selective Detector using the same type of GC column and conditions as described above. Compounds were identified by comparison of retention times with those of authentic standards and with mass spectra of standards.

V. consobrina = format: in vivo, Vespula consobrina; details: Exp 1; HIPV added to WHY attractant in the top chamber, or WHY alone
Procedure: Three field trapping experiments were carried out during late July to early August 2009, in residential and woody areas around Spokane, Wash., USA, using the newly marketed Rescue® W•H•Y traps (www.rescue.com). As used herein, the W•H•Y trap is a trap in accordance with the description of United States Patent Application Publication No. 2009/0151228. The W•H•Y trap has a top chamber and a bottom chamber. The top chamber is baited with two attractants—one of which is a solid contained in a vial (2-methyl-1-butanol) and the other a liquid mixed with water (acetic acid), herein referred to as the W•H•Y top attractant. The bottom chamber is baited with a liquid attractant (heptyl butyrate) poured onto a cotton pad, herein referred to as the W•H•Y bottom attractant. Separation of the top and bottom attractants (otherwise antagonistic to each other when released from the same chamber) in two chambers was a design feature of this trap and creates two focal attraction sources from one trap for different species of wasps, hornets, and yellowjackets. Traps were hung 1.5-2.0 m above the ground on either the fence or tree branches ca. 5 m apart within each trap line. For each trapping experiment, six sets of traps were deployed with their initial trap positions within each set being randomized. To minimize positional effects and obtain more replications, wasp collections and trap re-randomization were carried out when ≧10-20 wasps were caught in the best trap. Each replicate lasted several days depending on wasp flight activity. Captured wasps were removed from the traps and kept in the zip-bags before taking back to the laboratory for recording of the species, gender status, and catch. […]
Trap catch data were converted to proportion (P) of total captured wasps within each replicate. Data were then transformed by arcsin√P to meet the assumptions of normality and homogeneity of variances for ANOVA. Means were compared by ANOVA followed by the Ryan-Einot-Gabriel-Welsh (REGW) multiple Q test (SPSS 16.0 for Windows) at α=0.05.

[2] = test system: Polistes dominulus worker antennae; experiment: GC-EAD of cherry branch aeration samples
Procedure: Lapin cherry branches with severely damaged cherries and leaves and undamaged or slightly damaged branches were collected from a cherry orchard at Creston, Canada, on Jul. 29, 2009, and were transported to the Sterling International, Inc. lab (Spokane, Wash.) on the same day and kept at 4° C. before aerations. Headspace volatiles from the cherry branches (damaged or undamaged) were sampled by a battery operated pump and a high density polyacetate oven bag (48.2×59.6 cm Reynolds® Oven Bag; Richmond, Va., USA) enclosure with one activated charcoal filter tube in the air inlet, on Jul. 30, 2009. The volatiles in the enclosure were trapped on one Porapak Q tube (50/80 mesh; 30 mg in Teflon tube: 3 mm×35 mm) for 2.5 hr (airflow 300 ml/min) and extracted with 1 ml redistilled pentane. Aeration samples of the cherry branches (damaged or undamaged/slightly damaged) were injected (3 μl) splitless into a Varian CP-3800 GC equipped with a polar column (HP-INNOWax; 30 m×0.53 mm×1.0 μm film thickness; […] Helium was used as the carrier gas, and the injector and detector temperatures were 250° C. and 300° C., respectively. Column temperature was 50° C. for 1 min, rising to 240° C. at 10° C./min, and then held for 10 min. The outlet for the EAD was held in a humidified air stream flowing at 0.5 m/sec over the antennal preparation. EAD recordings were made using silver wire-glass capillary electrodes filled with Beadle-Ephrussi Ringer on freshly cut antennae. The antennal signals were stored and analyzed on a PC equipped with a serial IDAC interface box and the program EAD ver. 2.5 (Syntech, Hilversum, The Netherlands). […] (See FIG. 2.) The same chemicals were also tested on beneficial insect antennae from Chrysopa oculata, Myrmeleon crudelis, Podisus maculiventris, and Hippodarnia convergens. (See […] active peaks in the aeration samples were identified by GC-MS on an HP 6890 GC series coupled with an HP 5973 Mass Selective Detector using the same type of GC column and conditions as described above. Compounds were identified by comparison of retention times with those of authentic standards and with mass spectra of standards.

[3] = aeration of severely damaged cherry branches, at current release rates
[4] = aeration of undamaged or slightly damaged cherry branches

Row | SMILES | EAD response of worker antennae [1] | Total Yellowjacket Catches V. consobrina (V. consobrina) | EAD response of worker antennae [2, 3] | EAD response of worker antennae [2, 4]
1 | CC/C=C\CCOC(C)=O [Z-3-Hexenyl Acetate, (Z)-3-hexenyl acetate] | responded consistently | 1 | did not elicit significant EAD-responses | strongly responded
2 | COC(=O)c1ccccc1O [Methyl Salicylate, methyl salicylate] | responded consistently | 2 | did not elicit significant EAD-responses | 
3 | CC/C=C\CCO [Z-3-Hexanol, (Z)-3-hexen-1-ol] | responded consistently | 0 | did not elicit significant EAD-responses | strongly responded
4 | C=C/C=C(\C)CCC=C(C)C [(E)-4,8-dimethyl-1,3,7-nonatriene] | responded consistently | 0 | significant EAD response | 
